From patent US20110288086A1, “POLYCYCLIC QUINAZOLINES, PREPARATION THEREOF, AND USE THEREOF” (priority 2010, published 2011)

Columns and labels:
[1] = target: T1, aurora kinase B (Homo sapiens, UniProt Q96GD4); assay: Aurora kinase B inhibition in vitro (Invitrogen aurora kinase screening kit PV3174); format: biochemical
T1 construct: purchased Invitrogen PV3174

[2] = tested on: Jurkat E6-1 human T-cell lymphoma; assay: Tumor cell IC50, CCK-8 kit, Jurkat E6-1; format: cell-based; settings: E6-1 cells
[3] = tested on: Hut78 T-Lymphocytic Leukemia cells; assay: Tumor cell IC50, CCK-8 kit, Hut78; format: cell-based; settings: Homo sapiens, Hut-78 cells
[4] = tested on: Colo320 human rectal cancer cells; assay: Tumor cell IC50, CCK-8 kit, Colo320; format: cell-based; settings: COLO 320
[5] = tested on: K562 human chronicity marrow leukemic cells; assay: Tumor cell IC50, CCK-8 kit, K562; format: cell-based
[6] = tested on: MDA-MB-435s human breast carcinoma cells; assay: Tumor cell IC50, CCK-8 kit, MDA-MB-435s; format: cell-based; settings: 435s cells
[7] = tested on: Hep3B2. 1-7 human hepatoma carcinoma cells; assay: Tumor cell IC50, CCK-8 kit, Hep3B; format: cell-based
[8] = tested on: A549 human lung cancer cells; assay: Tumor cell IC50, CCK-8 kit, A549; format: cell-based
[9] = tested on: PANC-1 human pancreatic cancer cells; assay: Tumor cell IC50, CCK-8 kit, PANC-1; format: cell-based; settings: PANC-1 cells
[10] = tested on: PC-3 human carcinoma of prostate; assay: Tumor cell IC50, CCK-8 kit, PC-3; format: cell-based; settings: PC-3 cells
[11] = Acute Toxicity Study; settings: in vivo; preliminary screening, Bliss statistical method
Method: The acute toxicity experiments were carried out according to the methods disclosed in the book of Modern Pharmacological Methods, edited chiefly by Zhang Jun-Tian.

[12] = tested on: K562 human chronicity marrow leukemic cells; assay: Tumor cell inhibition ratio, CCK-8 kit, K562; settings: K562, read-out: Antiproliferative effect (inhibition ratio) K562
Text: (§1) The inhibitory activities of the compounds on tumor cells in vitro

[13] = tested on: A549 human lung cancer cells; assay: Tumor cell inhibition ratio, CCK-8 kit, A549; settings: A549, read-out: Antiproliferative effect (inhibition ratio) A549
Text: as §1

[14] = tested on: PC-3 human carcinoma of prostate; assay: Tumor cell inhibition ratio, CCK-8 kit, PC-3; settings: read-out: Antiproliferative effect (inhibition ratio) PC-3
Text: as §1

[15] = tested on: Hut78 T-Lymphocytic Leukemia cells; assay: Tumor cell inhibition ratio, CCK-8 kit, Hut78; settings: Homo sapiens, HuT78, read-out: Antiproliferative effect (inhibition ratio) Hut-78
Text: as §1

[16] = tested on: Hep3B2.1-7 human hepatoma carcinoma cells; assay: Tumor cell inhibition ratio, CCK-8 kit, Hep3B; settings: read-out: Antiproliferative effect (inhibition ratio) Hep3B
Text: as §1

[17] = tested on: PANC-1 human pancreatic cancer cells; assay: Tumor cell inhibition ratio, CCK-8 kit, PANC-1; settings: PANC-1, read-out: Antiproliferative effect (inhibition ratio) PANC-1
Text: as §1

[18] = tested on: Colo320 human rectal cancer cells; assay: Tumor cell inhibition ratio, CCK-8 kit, Colo320; settings: COLO 320, read-out: Antiproliferative effect (inhibition ratio) Colo320
Text: as §1

[19] = tested on: Jurkat E6-1 human T-cell lymphoma; assay: Tumor cell inhibition ratio, CCK-8 kit, Jurkat E6-1; settings: Jurkat E6.1, read-out: Antiproliferative effect (inhibition ratio) E6-1
Text: as §1

[20] = tested on: MDA-MB-435s human breast carcinoma cells; assay: Tumor cell inhibition ratio, CCK-8 kit, MDA-MB-435s; settings: read-out: Antiproliferative effect (inhibition ratio) 435s
Text: as §1

[21] = target: EGFR tyrosine kinase (Homo sapiens, UniProt P00533); assay: EGFR tyrosine kinase inhibition in vitro (Invitrogen EGFR inhibitor screening kit PV3193)
Sequence of EGFR tyrosine kinase (P00533 25-1210): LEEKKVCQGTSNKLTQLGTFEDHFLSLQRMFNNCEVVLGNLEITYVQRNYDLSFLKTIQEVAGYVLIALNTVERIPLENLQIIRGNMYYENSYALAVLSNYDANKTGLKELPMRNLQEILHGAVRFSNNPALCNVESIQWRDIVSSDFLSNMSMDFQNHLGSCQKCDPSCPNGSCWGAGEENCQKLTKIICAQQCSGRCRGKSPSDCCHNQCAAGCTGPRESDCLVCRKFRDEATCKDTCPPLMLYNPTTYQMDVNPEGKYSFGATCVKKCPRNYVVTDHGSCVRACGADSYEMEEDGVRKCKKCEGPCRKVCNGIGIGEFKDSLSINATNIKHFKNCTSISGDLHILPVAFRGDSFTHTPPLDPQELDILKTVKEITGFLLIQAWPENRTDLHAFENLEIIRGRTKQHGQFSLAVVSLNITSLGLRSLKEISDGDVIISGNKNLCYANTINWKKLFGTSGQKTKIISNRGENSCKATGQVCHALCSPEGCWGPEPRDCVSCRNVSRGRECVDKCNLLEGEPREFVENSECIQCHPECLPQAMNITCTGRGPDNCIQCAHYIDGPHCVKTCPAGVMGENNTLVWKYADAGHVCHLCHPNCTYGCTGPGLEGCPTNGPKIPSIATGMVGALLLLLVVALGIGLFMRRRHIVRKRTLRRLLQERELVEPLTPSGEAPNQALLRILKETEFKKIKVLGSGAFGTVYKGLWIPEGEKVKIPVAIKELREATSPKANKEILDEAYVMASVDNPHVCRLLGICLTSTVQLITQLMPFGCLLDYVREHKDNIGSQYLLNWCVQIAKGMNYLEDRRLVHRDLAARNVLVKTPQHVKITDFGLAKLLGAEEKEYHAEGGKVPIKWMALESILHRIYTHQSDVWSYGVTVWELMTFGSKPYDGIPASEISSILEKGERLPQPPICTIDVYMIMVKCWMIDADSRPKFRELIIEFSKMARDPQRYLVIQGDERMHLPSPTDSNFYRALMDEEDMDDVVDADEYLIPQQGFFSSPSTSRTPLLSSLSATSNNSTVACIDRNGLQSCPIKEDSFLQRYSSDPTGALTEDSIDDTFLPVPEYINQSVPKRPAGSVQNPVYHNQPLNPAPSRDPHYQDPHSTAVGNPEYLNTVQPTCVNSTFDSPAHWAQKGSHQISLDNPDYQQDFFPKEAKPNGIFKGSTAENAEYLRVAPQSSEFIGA
Text: The inhibitory activities of EGFR tyrosine kinase in vitro
Erlotinib hydrochloride was used as a positive control drug.

T1 sequence (Q96GD4 whole entry): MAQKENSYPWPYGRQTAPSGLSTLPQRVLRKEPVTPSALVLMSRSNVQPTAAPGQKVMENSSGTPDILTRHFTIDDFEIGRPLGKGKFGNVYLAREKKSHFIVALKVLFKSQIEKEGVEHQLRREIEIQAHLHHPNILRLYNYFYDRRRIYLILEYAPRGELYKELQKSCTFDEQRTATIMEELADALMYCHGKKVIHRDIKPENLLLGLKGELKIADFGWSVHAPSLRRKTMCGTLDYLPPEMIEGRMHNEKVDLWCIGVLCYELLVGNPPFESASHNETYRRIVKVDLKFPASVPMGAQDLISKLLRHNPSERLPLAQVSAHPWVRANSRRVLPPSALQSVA

For `COCCOc1cc2c(cc1OCCOC)C1=Nc3cccc(Br)c3CN1C=N2.Cl` [Compound V-2, 9-bromo-2,3-bis(2-methoxyethoxy)-8H-quinazolino[4,3-b]quinazoline hydrochloride hemihydrate], the “The inhibition ratio of the compound on Aurora B(%)” value ([1]; 40 μM) was 53.2%, the “The inhibition ratio of the compound on Aurora B(%)” value ([1]; 200 μM) was 95.8% and the IC50 [2] was 15.3 µg/mL. For the same molecule, the IC50 [3] was 61.1 µg/mL, the IC50 [4] was 32.3 µg/mL and the IC50 [5] was 34 µg/mL. For the same molecule, the IC50 [6] was 0.42 µg/mL, the IC50 [7] was 9.83 µg/mL and the IC50 [8] was 0.67 µg/mL. It also gave an IC50 [9] of 0.11 µg/mL, an IC50 [10] of 4.78 µg/mL and an LD50 [11] of 2050 mg/kg. It also gave an inhibition at 10 µM [12] of 65.4%, an inhibition at 100 µM [12] of 91.1% and an inhibition at 10 µM [13] of 68.6%. It also gave an inhibition at 100 µM [13] of 90.7%, an inhibition at 10 µM [14] of 72.2% and an inhibition at 100 µM [14] of 92.7%. It also gave an inhibition at 10 µM [15] of 28.9%, an inhibition at 100 µM [15] of 73.8% and an inhibition at 10 µM [16] of 53.5%. It also gave an inhibition at 100 µM [16] of 90%, an inhibition at 10 µM [17] of 59.7% and an inhibition at 100 µM [17] of 95.9%. For the same molecule, the inhibition at 10 µM [18] was 57%, the inhibition at 100 µM [18] was 89.6% and the inhibition at 10 µM [19] was 56.2%. For the same molecule, the inhibition at 100 µM [19] was 83.1%, the inhibition at 10 µM [20] was 59.8% and the inhibition at 100 µM [20] was 82.6%. The “The inhibition ratio of the compound on EGFR(%)” value ([21]; 40 μM) was 62.9% and the “The inhibition ratio of the compound on EGFR(%)” value ([21]; 200 μM) was 97.9%.
